Assay results published in patent US11839210B1, “Plant growth promoter with strigolactones regulation activities” (King Abdullah University of Science and Technology, priority 2017, dated 2023).

Experiments:
[1] = system: D17; experiment: qRT-PCR of D17 gene expression in rice roots after zaxinone treatment; assay type: in vivo, rice (Oryza sativa Nipponbare); conditions: −Pi, 6 h
Method: (§1) For the analysis of SL transcript levels in the zas mutant, one week-old seedlings were grown hydroponically in half-strength modified Hoagland nutrient solution with K2HPO4·2H2O (+Pi) and without K2HPO4·2H2O (−Pi) for 7 days. Seedlings were further treated with zaxinone for 6 h and tissues were collected.
(§2) Total RNA was extracted from the roots and shoots using a Qiagen Plant RNeasy Kit according to the manufacturer's instruction. cDNA was synthesized from 1 μg of total RNA using iScript cDNA Synthesis Kit (BIO-RAD Laboratories, Inc, 2000 Alfred Nobel Drive, Hercules, CA, Cat. No #170-8890) according to instructions in the user manual. For mycorrhizal samples, single-strand cDNA was synthesized from 1 μg of total RNA using Super-Script II (Invitrogen) according to instructions in the user manual. Primers used for real-time quantitative RT-PCR (qRT-PCR) analysis are listed below in Table 3. qRT-PCR was performed using SYBR Green Master Mix (Applied Biosystems; www.lifetechnologies.com) in a StepOnePlus (Life Technologies, Carlsbad, CA, USA). For mycorrhizal samples, qRT-PCR was performed using a Rotor-Gene Q 5plex HRM Platform (Qiagen). The 2-ΔCt method was used to calculate the relative gene expression levels and rice Ubiquitin (OsUBQ or OsRubQ1) gene was used as the internal control to normalize target gene expression.
(§3) 14-day-old rice seedlings were transferred to new hydroponic pots containing fresh media with or without chemicals for 6 hours. SL biosynthetic (D27, D10, D17 and MAX1-Os900) gene expression were determined under −Pi conditions (phosphate deficient) with zaxinone (2.5 and 5 μM) treatment of both Nipponbare wild-type (WT) rice roots and zas mutant rice roots. The expression levels (1301) were detected by quantitative RT-PCR. Ubiquitin was used as a reference gene. Mock treatment (control) treatment consisted of 0.1% acetone. Bars (1302) show comparisons between the treatments and represent mean±SD (n=3). Decrease in SLs levels in the plants treated with zaxinone ranged from approximately 40% to 70%.

[2] = system: MAX1-Os900; experiment: qRT-PCR of MAX1-Os900 gene expression in rice roots after zaxinone treatment; assay type: in vivo, rice (Oryza sativa Nipponbare); conditions: −Pi, 6 h
Method: as §1, §2, §3

[3] = system: Striga hermonthica seeds; experiment: Striga hermonthica seed germination bioassay with rice root exudates; assay type: in vivo
Method: For the analysis of SLs, one week-old seedlings were further transferred into 50 ml falcon tube (three seedlings per tube) containing Hoagland nutrient solution with K2HPO4·2H2O (+Pi) and grown in the growth cabinet for one week. The rice seedlings were then subjected to phosphate deficiency for another one week period. On the day of root exudates collection, rice seedlings were first treated with 5 μM zaxinone for 6 h and then root exudates and root tissues were collected from each tube for LC-MS/MS analysis and Striga bioassays.
The Striga seed germination bioassay was carried out in the following manner After 10 days of pre-conditioning (30° C. under moisture for 10 days), Striga seeds were supplied with 50 μl of SL collected from root exudates of zaxinone treated and non-treated wild-types and zas mutants. After SLs application, Striga seeds were incubated at 30° C. in the dark for two days. Germinated (seeds with radicle) and non-germinated seeds were counted under a binocular to calculate germination rates (%).

[4] = system: Striga hermonthica; experiment: Striga hermonthica infection in rice (pots with Striga infested soil); assay type: in vivo, Striga hermonthica on rice cv. IAC-165; conditions: 10 μM zaxinone
Method: About 10 mg (4000) of Striga seeds were thoroughly mixed in 2 L soil and sand mixture (1:1), and added to a 3 L plastic pot. The pots with Striga seeds were kept under moist conditions at 35° C. for 10 days. Five days-old three rice seedlings (Oryza sativa L. cv. IAC-165) were then planted in the middle of each pot. A stock of 10 mM of zaxinone was prepared by mixing with an emulsifier (cyclohexanone+Atlas G1086). Three days after rice planting, zaxinone was applied at 10 μM through 20 ml water in each pot. Zaxinone was applied twice a week for up-to five weeks. Striga emergences were recorded six weeks after rice planting.

[5] = system: mycorrhizal wild-type and zas mutant rice plants; experiment: Zaxinone effect on mycorrhizal rice plants (phenotype and AM colonization); assay type: in vivo, Oryza sativa Nipponbare
Method: Seeds of WT (cv. Nipponbare) and zas mutant were germinated in pots containing sand and incubated for 10 days in a growth chamber under conditions having a 14 h light (23° C.)/10 h dark (21° C.) cycle. Plants used for mycorrhization were inoculated with Funelliformis mosseae (BEG 12, MycAgroLab, France) or Rhizophagus irregularis (INOQ GmbH, Germany) Both fungi inocula (25%) were mixed with sterile quartz sand and used for colonization. Plants were watered with a modified Long-Ashton (LA) solution containing 3.2 μM Na2HPO4·12H2O and were grown in a growth chamber under the 14 h light (24° C.)/10 h dark (20° C.) regime.
Wild-type and zas mycorrhizal plants were grown in sand and watered twice a week with different concentrations of zaxinone (5 μM; 0.5 μM; 50 nM) directly applied in the Long Ashton nutrient solution. Data were collected 35 days post germination (dpg).
Wild-type and zas mycorrhizal roots were stained with 0.1% cotton blue in lactic acid and the estimation of mycorrhizal parameters was performed using MYCOCALC. For the molecular analyses, roots were immediately frozen in liquid nitrogen and stored at −80° C.
Mycorrizhal plants were grown in sand and watered with Long Ashton solution (3.2 μM Pi) for five weeks post AM fungus inoculation. FIGS. 23A-23F show the effect of twice a week treatment with zaxinone (5 μM) for wild-type (WT) and zas mutant (zas) plants. Data are means±SE, n=9 plants. Different letters above the bars indicate significant differences according to Tukey's test (P<0.05).

[6] = WT rice roots, 2.5 μM zaxinone, WT mock approx. 1.0
[7] = WT rice roots, 5.0 μM zaxinone, WT mock approx. 1.0
[8] = zas mutant rice roots, 2.5 μM zaxinone
[9] = zas mutant rice roots, 5.0 μM zaxinone

What does the source list for `CC(=O)/C=C/C=C(C)/C=C/C1=C(C)C[C@@H](O)CC1(C)C` [zaxinone, 3-OH-β-apo-13-carotenone]?
decrease of D17 relative expression vs mock ([1]; WT rice roots, 2.5 μM zaxinone): approximately 75%; D17 relative expression [1, 6]: approximately 0.25; decrease of D17 relative expression vs mock ([1]; WT rice roots, 5.0 μM zaxinone): ~70%; D17 relative expression [1, 7]: approximately 0.3; decrease of D17 relative expression vs mock [1, 8]: approximately 60%; D17 relative expression ([1]; zas mutant rice roots, 2.5 μM zaxinone, zas mock approx. 2.5): approximately 1.0; decrease of D17 relative expression vs mock [1, 9]: ~68%; D17 relative expression ([1]; zas mutant rice roots, 5.0 μM zaxinone, zas mock approx. 2.5): approximately 0.8; decrease of MAX1-Os900 relative expression vs mock ([2]; WT rice roots, 2.5 μM zaxinone): approximately 75%; MAX1-Os900 relative expression [2, 6]: approximately 0.25; decrease of MAX1-Os900 relative expression vs mock ([2]; WT rice roots, 5.0 μM zaxinone): ~60%; MAX1-Os900 relative expression [2, 7]: approximately 0.4; decrease of MAX1-Os900 relative expression vs mock [2, 8]: approximately 43%; MAX1-Os900 relative expression ([2]; zas mutant rice roots, 2.5 μM zaxinone, zas mock approx. 2.1): approximately 1.2; decrease of MAX1-Os900 relative expression vs mock [2, 9]: ~57%; MAX1-Os900 relative expression ([2]; zas mutant rice roots, 5.0 μM zaxinone, zas mock approx. 2.1): approximately 0.9; decrease in germination rate of S. hermonthica seeds vs mock-treated culture medium ([3]; culture medium from zaxinone treated WT rice): approximately 50%; decreases in germination rates of S. hermonthica seeds vs mock ([3]; culture medium from zaxinone treated WT rice and zas mutant rice (both together)): 40-50%; decrease in germination rate of S. hermonthica seeds vs mock-treated culture medium ([3]; culture medium from zaxinone treated zas mutant rice): approximately 40%; germination of Striga seeds exposed to root exudates ([3]; exudates from zaxinone treated zas mutant (zas/Zax), phosphate-starved, 5 μM): decreased to levels near the germination rates for the wild-type control; germinating activity of root exudates on Striga hermonthica seeds ([3]; zas exudates, normal phosphorus (+Pi), 5 μM zaxinone, exudates diluted 9 times): decreased germinating activity of zas exudates (zas/Zax) to a level below that of the wild-type sample; lowering of Striga seed germinating activity of root exudates ([3]; zas mutant exudates, phosphate-starved, 5 μM zaxinone, 6 h): 40%; reduction of number of emerging Striga plants vs untreated control ([4]; rice cv. IAC-165 in pots with Striga infested soil): around 80%; number of emerging Striga plants ([4]; six-week old rice cv. IAC-165 in soil, mock around 15-25): less than 10; AM colonization capacity ([5]; 5 μM zaxinone): did not improve; growth vs Mock treatment ([5]; WT mycorrhizal plants, 5 μM zaxinone twice a week, five weeks): did not significantly differ; crown root number, root biomass, shoot length and shoot biomass ([5]; zas mutant mycorrhizal plants, 5 μM zaxinone twice a week, five weeks): significant increase
